PMC3125149, “SCYX-7158, an Orally-Active Benzoxaborole for the Treatment of Stage 2 Human African Trypanosomiasis” (PLoS Neglected Tropical Diseases, 2011)

What was measured:
[1] = Pharmacokinetics in cynomolgus monkeys; type: in vivo, cynomolgus monkey
Protocol: The blood distribution, CNS disposition and pharmacokinetics of SCYX-7158 were evaluated in infected or non-infected rodents following intravenous or oral administration of compounds. Pharmacokinetics and bioavailability of SCYX-7158 were also evaluated in non-infected beagle dogs and cynomolgus monkeys. In-life phases of non-infected rodent studies were performed at Vivisource (Waltham, MA); studies in non-naïve cynomolgus monkeys were performed by SNBL USA (Everett, WA). Male CD-1 mice (∼25 g), male Sprague-Dawley rats (∼225 g), or male cynomolgus monkeys (∼3–5 kg) were administered test article by either bolus intravenous injection (IV) or oral gavage. Animals in the IV groups received a single 2 mg/kg IV dose. Animals received oral doses of test articles as either single or twice daily doses ranging from 8 mg/kg to 50 mg/kg. All doses were administered as clear colorless solutions in either 50% (v/v) PEG 400: 20% (v/v) ethanol: 30% (v/v) carboxymethylcellulose (0.5% w/v in sterile water for injection) or 2% (v/v) ethanol: 5% (w/v) dextrose in sterile water for injection. […] For pharmacokinetic analysis, blood samples were collected from mice via cardiac puncture under terminal anaesthesia. Serial blood samples were collected from rats via a vascular access port located in the lateral saphenous vein. Mice and rats were euthanized in a CO2 chamber before collection of terminal blood samples or brain tissue. Blood samples were collected into polypropylene tubes containing K2EDTA anticoagulant and stored on ice until centrifuged for the preparation of plasma. Plasma was stored at −70°C. Whole brains were collected following decapitation, blotted dry, placed into polypropylene containers and then immediately frozen at approximately −70°C. CSF was collected from rats via cisterna magna puncture, placed in sterile polypropylene tubes, and stored at approximately −70°C. […] Treated samples were gently mixed at room temperature for 10 min, and then centrifuged at approximately 3000×g for 15 min at 15°C. The supernatants were transferred to 96-well plates or HPLC vials for analysis by LC-MS/MS. Pharmacokinetic parameters were calculated from composite mean plasma or tissue data using non-compartmental (oral and intravenous routes) and bi-exponential (intravenous route) analyses in Microsoft Excel.

[2] = Stability in plasma or brain homogenate; type: in vitro ADME; settings: incubated with plasma or brain homogenate for 4 h at 37°C
Protocol: Binding to human or mouse plasma proteins or mouse brain homogenate was determined by rapid equilibrium dialysis (RED) (Pierce, Rockford, IL) using a 48-well plate-based format according to the manufacturer's instructions. Briefly, test compound at the required concentrations was added to fresh human or mouse plasma (Bioreclamation, Liverpool, NY) or freshly prepared mouse brain homogenate. Duplicate aliquots of each sample were transferred into the sample chambers of the RED devices, and dialysis buffer (BupH PBS) was added to the buffer chambers. The plates were sealed and incubated at 37°C for 4 h. After dialysis, samples collected from the buffer and tissue chambers were treated with ice-cold methanol (3 volumes for plasma, 4 volumes for brain) to precipitate proteins. The treated samples were centrifuged for 10 min at 3×10^3 g at 15°C. The supernatants were assayed for test compound by LC-MS/MS. Calibration standards and quality control samples were prepared in matched matrix and assayed with samples. Values for unbound and bound fractions and mass balance were calculated. Concordance of binding for each batch of plasma was confirmed by assay of warfarin, imipramine and carbamezapine. […] The stability of each oxaborole in the CNS tissue was evaluated by incubation in fresh rodent brain homogenate. […] Supernatants from the incubation mixtures were analyzed for parent compound by LC-MS/MS.

T. b. brucei TREU 667 = test: Efficacy in mouse model for chronic (CNS, stage 2) HAT; type: in vivo
Protocol: For evaluation against late-stage CNS infections, a chronic disease inducing strain (TREU 667) of T. b. brucei was used.[19] Mice were divided into groups of ten and each animal was infected i.p. with 1×10^4 parasites (200 μL). […] Louis, MO) administered by i.p. injection on day 4 after infection. […] Animals were checked for parasitemia once per week and were immediately removed from the cages and euthanized upon recrudescence. Animals were considered to be cured of a CNS infection if they were […] for at least 180 days after the end of the treatment period.

[3] = Metabolic stability in liver microsomal and S9 fractions; type: in vitro ADME, rodents, cynomolgus monkey and humans; settings: CD-1 (mouse), Sprague-Dawley (rat), beagle (dog), cynomolgus monkey, human, liver microsomes and liver S9 fractions, all species
Protocol: Metabolic stability was evaluated using mixed gender CD-1 mouse or human liver microsomal fractions (XenoTech, Lenexa, KS). Compounds (1 µM) were incubated with microsomes (1.05 mg/mL protein) for 0, 10, 15 and 30 min at 37°C in an oxygen and humidity enriched environment in the presence of an NADPH-regenerating system. Each compound was also incubated, under the same conditions, with CD-1 mouse, Sprague-Dawley rat, beagle dog, cynomolgus monkey, and human liver S9 sub-cellular fractions (2 mg/mL protein)[23] for 0, 15, 30 and 60 min. At the end of each incubation period, the reactions were quenched with 3 volumes of ice-cold methanol. Supernatants from the incubation mixtures were analyzed for parent compound by LC-MS/MS. Metabolic competencies of microsomal and S9 fractions were confirmed using control compounds 7-ethoxycoumarin, propranolol and verapamil. Intrinsic clearance (CLint) and half-life (t½) values were determined for each compound.

## CC1(C)OB(O)c2cc(NC(=O)c3ccc(F)cc3C(F)(F)F)ccc21 [SCYX-7158]
[1]; 10 mg/kg NG, plasma
  time of Cmax: 9.5 h
[1]; male, cynomolgus monkey, CSF/plasma, at each time point, read-out: CSF concentration as % of the plasma concentration
  Kp: ~0.05
[1]; male, cynomolgus monkey, oral, 10 mg/kg SCYX-7158 NG, plasma
  AUC(0-inf): 460 µg·h/mL
[1]; male, cynomolgus monkey, oral, 10 mg/kg SCYX-7158 nasogastric (NG), plasma
  Cmax: 11 µg/mL
[1]; male, cynomolgus monkey, plasma, po, 10 mg/kg NG, read-out: absolute oral bioavailability
  bioavailability: 89%
[1]; male, cynomolgus monkey, plasma, po, 10 mg/kg NG, read-out: oral clearance (Cl/F) (converted)
  CL/F: 0.025 L/h/kg
[1]; male, cynomolgus monkey, plasma, 2 mg/kg IV
  clearance: 0.022 L/h/kg
[1]; male, cynomolgus monkey, plasma, 2 mg/kg IV, read-out: Vdss
  Vd: 0.656 L/kg
[1]; male, cynomolgus monkey, 2 mg/kg IV, plasma
  AUC(0-inf): 94.4 µg·h/mL
[1]; male, cynomolgus monkey, 2 mg/kg IV, plasma, read-out: AUC0–24 h
  AUC(0-t): 78.8 µg·h/mL
[2]
  stability: stable
T. b. brucei TREU 667; 12.5 mg/kg once daily oral over 7 days starting day 21 after infection
  cure rate: 80%
T. b. brucei TREU 667; 25 mg/kg once daily oral, 7 doses, starting day 21 after infection
  cure rate: 100%
T. b. brucei TREU 667; QD×7 days, oral
  lowest effective oral dose in murine stage 2 study: 12.5 mg/kg
[3]
  half-life at 1 µM: > 5.83 h
[3]; read-out: intrinsic clearance
  microsomal CLint at 1 µM: < 5 µL/min/mg
